Reference: patent EP0369035A1, “AGENT FOR TREATING PANCREATITIS OR THE LIKE” (priority 1988, dated 1989)
Where two headings read alike, the source gives them in different places.

What was measured:
human plasmin [1] = biological target: T1, human plasmin (Homo sapiens, UniProt P00747); assay: Anti-plasmin activity: inhibition of S-2251 degradation; assay type: biochemical
T1 construct: 50 µl of 0.2 casein units/ml of human plasmin
Method: ii) Assay method of inhibition of S-2251 degradation
The test substance was dissolved in a 0.05 M Tris-HC1 (pH7.4) buffer to make a total volume of 400 µl, and 50 µl of a 3 mM S-2251 solution was added to the solution. The mixture was incubated at 37°C for 5 minutes in an incubator, and after the addition of 50 µl of 0.2 casein units/ml of human plasmin, and incubation at 37°C for 4 minutes, the reaction was terminated by an addition of 50 µl of 50% acetic acid.

human plasma kallikrein = biological target: T2, human plasma kallikrein (Homo sapiens, UniProt P03952); assay: Anti-plasma kallikrein activity: inhibition of S-2302 degradation; assay type: biochemical
T2 construct: 50 µl of 0.12 units/ml human plasma kallikrein solution
Method: 2) Assay of anti-plasma kallikrein activity Assay method of inhibition of S-2302 degradation
(§1) The test substance was dissolved in a 0.05 M Tris-HC1 (pH 7.8) buffer to make a total volume of 400 µl, and 50 µl of a 2 mM S-2302 solution was added to the solution. After incubation at 37°C for 5 minutes in an incubator, an addition of 50 µl of 0.12 units/ml human plasma kallikrein solution, and incubation at 37°C for 5 minutes, the reaction was terminated by an addition of 50 µl of 50% acetic acid.

bovine factor Xa = biological target: T3, bovine factor Xa (Bos taurus, UniProt P00743); assay: Anti-FXa activity: inhibition of S-2222 degradation; assay type: biochemical
T3 construct: 0.05 ml of 0.3 vial/ml bovine factor Xa
Method: 4) Assay of anti-FXa activity Assay method of inhibition of S-2222 degradation
To 0.4 ml of the test substance dissolved in a 0.05 M Tris-HC1 (pH 8.3) buffer is added 0.05 ml of 3 mM S-2222 solution, and after incubation at 37°C for about 4 minutes, an addition of 0.05 ml of 0.3 vial/ml bovine factor Xa, and a reaction at 37°C for 4 minutes, the - reaction was terminated by adding 0.05 ml of 50% acetic acid.

[2] = tested on: experimental pancreatitis; assay: Effect on experimental pancreatitis (sodium taurochorate + trypsin into the common bile duct), survival ratio; assay type: in vivo, SD-rats; set-up: Effect on experimental pancreatitis (100 mg/kg p.o.) After 24 hours / Effect on experimental pancreatitis (100 mg/kg p.o.) After 48 hours / Effect of existing control drug on experimental pancreatitis After 24 hours: unit not given here; settings: rat; for Effect on experimental pancreatitis Survival ratio(%) After 24 hours / Effect on experimental pancreatitis Survival ratio(%) After 48 hours: 80 μg/kg/min. x 80 min. continuous infusion; for Effect on experimental pancreatitis (100 mg/kg p.o.) After 24 hours / Effect on experimental pancreatitis (100 mg/kg p.o.) After 48 hours / Effect of existing control drug on experimental pancreatitis After 24 hours: survival ratio; for Effect on experimental pancreatitis (100 mg/kg p.o.) After 24 hours / Effect on experimental pancreatitis (100 mg/kg p.o.) After 48 hours: 100 mg/kg p.o. 30 minutes before pancreatitis
From the text: [II] Effect on experimental pancreatitis
SD-rats, body weight of about 200 g were, starved overnight, and 10 to 24 animals were used in one group. Sodium pentobarbital was intraperioneally administered to anesthetize each rat, and then a cannula was inserted to the femoral vein for the administration of the test substance. After abdominal surgery, the bile duct was blocked at a part thereof proximate to the liver, by a clip, a polyethylene tube was inserted to the common bile duct at a part thereof most proximate to the duodenum, and 0.1 ml of solution containing 2 mg sodium taurochorate and 1000 U trypsin dissolved in physiological saline was injected retrogrodely. After removal of the clip and tube, the common bile duct was ligated and the abdomen was closed. Note, the test substance was dissolved in an injective 5% glucose solution, and in the case of a continuous infusion, the solution was administered over 80 minutes starting from 10 minutes before the generation of pancreatitis. In the case of oral administration, the test substance was administered through an oral catheter 30 minutes before the generation of pancreatitis. After 24 hours and 48 hours from the generation of pancreatitis, the survival ratio of the animals was calculated and compared with a control group.

in vivo = settings: mouse, intravenous, ICR male mice, up-and-down method, read-out: Acute toxicity (LD50)
Method: ICR male mice 5 to 10 weeks old were used. The test substance was dissolved in a 5% dimethylsulfoxide aqueous solution, and the solution was intravenously administered in an amount of 0.1 to 0.2 ml/10 g body weight. An LD50 value was calculated by up-and-down method.

[3] = Measurement of half life in blood; assay type: in vivo; settings: rat, iv, administered to the tail vein, SD-rats, plasma, HPLC
Method: [VI] Measurement of half life in blood
SD-rats 6 to 7 weeks old were used. The test substance was dissolved in an injective 5% glucose solution and administered to the tail vein. After the administration, blood samples were periodically obtained from the great vein and placed into heparinized test tubes. Plasma was separated by centrifugation and the test substance was extracted with ethyl acetate. After removal of the solvent, the residue was dissolved in 200 µl of methanol, and analyzed by high performance liquid chromatography. From the change of the concentration of the test substance in blood with time, a half life thereof in blood was calculated.

human plasmin [4] = biological target: T1, human plasmin; assay: Anti-plasmin activity: inhibition of fibrinolysis (fibrin clot lysis time); assay type: biochemical
human urokinase = human urokinase (Homo sapiens, UniProt P00749); assay: Anti-urokinase activity: inhibition of S-2444 degradation; assay type: biochemical; settings: substrate S-2444, 37°C, pH 8.8; read-out: Urokinase S-2444 (I50)
Method: 3) Assay of anti-urokinase activity Assay method of inhibition of S-2444 degradation
as §1, with “8.8)” for “7.8)”, “1” for “2”, “S-2444” for “S-2302”, “mixture.” for “solution.”, “500” for “0.12”, “urokinase” for “plasma kallikrein”

experimental shock = assay: Effect on experimental shock (endotoxin-induced), survival ratio; assay type: in vivo, ICR-mice; settings: dose of 30 mg/kg intraperitoneally 15 minutes before endotoxin 40 mg/kg, mouse
Method: [IV] Effect on experimental shock
ICR-mice, body weight of about 25 g, were starved overnight. The test substance was dissolved in an injective 5% glucose solution and intraperioneally administered, and 15 minutes later, endotoxin (E. coli 0127:B8, Difco, U.S.) dissolved in a physiological saline was intraperioneally administered to an amount of 40 mg/kg body weight.

experimental DIC = assay: Effect on experimental DIC and MOF (endotoxin-induced); assay type: in vivo, SD-rats; settings: rat, 4 hours after endotoxin 10 mg/kg
Method: [III] Effect on experimental DIC
SD-rats, body weight of about 200 g, were starved overnight. Sodium pentobarbital was intraperioneally administered to anesthetize a rat, and then a cannula was inserted to the femoral vein, and the test substance dissolved in an injective 5% glucose solution was continually infused. Then, 10 minutes from the start of the injection, endotoxin (E. coli 0127:B8, Difco, U.S.) dissolved in physiological saline was injected through the tail vein to an amount of 10 mg/kg body weight, and 4 hours from the administration of endotoxin, the abdomen was opened, blood was obtained from the abdominal aorta, and platelets (Plt), fibrinogen (Fbg), fibrin degradation product (FDP), glutamic oxaloacetic transamirase (GOT), creatinine phosphokinase (CPK), and blood urin nitrogen (BUN) were measured.

[5] = substrate S-2251, 37°C, pH7.4, read-out: Plasmin S-2251 (I50)
[6] = substrate S-2302, 37°C, pH 7.8, read-out: Plasma kallikrein S-2302 (I50)
[7] = concentration giving a fibrin clot lysis time twice that of control, 37°C, pH7.4, read-out: Plasmin Fibrin (I50)

T1 sequence (P00747 581-810 limits assumed): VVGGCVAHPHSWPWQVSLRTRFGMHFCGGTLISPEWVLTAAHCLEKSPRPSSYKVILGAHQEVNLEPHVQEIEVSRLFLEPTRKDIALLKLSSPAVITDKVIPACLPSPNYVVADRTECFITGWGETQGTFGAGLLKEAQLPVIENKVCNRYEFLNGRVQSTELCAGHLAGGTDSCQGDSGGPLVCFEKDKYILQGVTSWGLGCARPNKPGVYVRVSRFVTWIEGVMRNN
T1 sequence (P00747 97-580 partner limits assumed): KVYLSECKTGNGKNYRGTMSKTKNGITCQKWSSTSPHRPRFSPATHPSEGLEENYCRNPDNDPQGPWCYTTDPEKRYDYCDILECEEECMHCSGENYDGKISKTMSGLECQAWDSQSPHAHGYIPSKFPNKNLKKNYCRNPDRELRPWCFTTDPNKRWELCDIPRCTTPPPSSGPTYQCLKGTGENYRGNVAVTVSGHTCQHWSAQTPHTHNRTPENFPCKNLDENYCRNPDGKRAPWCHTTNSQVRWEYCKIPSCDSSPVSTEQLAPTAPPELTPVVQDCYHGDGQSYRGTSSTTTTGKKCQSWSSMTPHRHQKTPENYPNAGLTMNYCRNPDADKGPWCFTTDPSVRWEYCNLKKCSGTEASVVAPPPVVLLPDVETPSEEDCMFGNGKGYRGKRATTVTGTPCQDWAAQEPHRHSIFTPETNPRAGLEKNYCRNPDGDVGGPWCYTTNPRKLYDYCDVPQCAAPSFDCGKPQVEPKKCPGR
T2 sequence (P03952 391-638 limits assumed): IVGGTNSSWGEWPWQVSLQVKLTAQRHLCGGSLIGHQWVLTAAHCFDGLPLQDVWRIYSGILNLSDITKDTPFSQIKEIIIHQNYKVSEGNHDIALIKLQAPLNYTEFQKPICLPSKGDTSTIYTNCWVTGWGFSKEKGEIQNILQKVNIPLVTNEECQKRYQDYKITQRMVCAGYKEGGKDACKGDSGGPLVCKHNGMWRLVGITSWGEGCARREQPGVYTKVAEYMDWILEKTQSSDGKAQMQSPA
T2 sequence (P03952 20-390 partner limits assumed): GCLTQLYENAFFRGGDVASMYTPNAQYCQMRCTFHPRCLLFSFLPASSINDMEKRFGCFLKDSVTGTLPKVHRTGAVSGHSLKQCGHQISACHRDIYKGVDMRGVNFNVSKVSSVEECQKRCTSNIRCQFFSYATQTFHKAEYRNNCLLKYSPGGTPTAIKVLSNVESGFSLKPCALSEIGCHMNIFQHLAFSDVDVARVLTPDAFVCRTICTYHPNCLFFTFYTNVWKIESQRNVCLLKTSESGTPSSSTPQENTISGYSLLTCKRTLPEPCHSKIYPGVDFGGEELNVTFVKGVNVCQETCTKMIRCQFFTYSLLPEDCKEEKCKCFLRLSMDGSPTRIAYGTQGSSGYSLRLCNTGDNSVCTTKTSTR
T3 sequence (P00743 234-492 limits assumed): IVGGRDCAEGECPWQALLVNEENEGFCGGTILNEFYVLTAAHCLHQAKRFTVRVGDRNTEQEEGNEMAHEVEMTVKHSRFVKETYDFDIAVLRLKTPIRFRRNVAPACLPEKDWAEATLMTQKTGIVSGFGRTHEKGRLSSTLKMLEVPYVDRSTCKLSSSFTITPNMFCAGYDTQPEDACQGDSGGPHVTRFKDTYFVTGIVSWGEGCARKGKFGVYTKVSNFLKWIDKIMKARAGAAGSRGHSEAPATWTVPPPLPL
T3 sequence (P00743 41-180 partner limits assumed): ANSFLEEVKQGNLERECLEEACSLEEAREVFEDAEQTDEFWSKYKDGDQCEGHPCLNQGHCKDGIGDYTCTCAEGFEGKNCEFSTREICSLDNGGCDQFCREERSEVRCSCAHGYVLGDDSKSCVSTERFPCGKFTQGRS

| Structure (SMILES) | IC50 (human plasmin [1]; [5]) | IC50 (human plasma kallikrein; [6]) | Effect on experimental pancreatitis Survival ratio(%) After 24 hours [2] | Effect on experimental pancreatitis Survival ratio(%) After 48 hours [2] | Effect on experimental pancreatitis (100 mg/kg p.o.) After 24 hours [2] | Effect on experimental pancreatitis (100 mg/kg p.o.) After 48 hours [2] | LD50 (in vivo) | half-life [3] | IC50 (human plasmin [4]; [7]) | IC50 (human urokinase) | other results |
| --- | --- | --- | --- | --- | --- | --- | --- | --- | --- | --- | --- |
| NCC1CCC(C(=O)NC(Cc2ccc(OCc3ccccn3)cc2)C(=O)Nc2ccc(C(=O)O)cc2)CC1 (centres unmarked) [Compound 20] | 65 µM | 1.4 µM | 58.3% | 41.7% | 58.3 | 41.7 | > 100 mg/kg | 14 min | 32 µM | – | IC50 (bovine factor Xa; substrate S-2222, 37°C, pH 8.3, read-out: FXa S-2222 (I50)): 700 µM |
| CCOC(=O)c1ccc(OC(=O)CCCCCNC(=N)N)cc1 [FOY, gabexate mesilate, reference compound] | – | – | – | – | – | – | 248 mg/kg | – | – | 1.3 µM | IC50 (human plasmin [1]): 3.4 µM; IC50 (human plasma kallikrein): 1.3 µM; IC50 (bovine factor Xa): 43 µM; Effect of existing control drug on experimental pancreatitis After 24 hours ([2]; 250 μg/kg/min x 80 min): 16.6; Effect of existing control drug on experimental pancreatitis After 24 hours ([2]; 1000 μg/kg/min x 80 min): 42.0; half-life ([3]; in vivo): 0.4 min; IC50 (human plasmin [4]): 3 µM |
| NC[C@H]1CC[C@H](C(=O)N[C@@H](Cc2ccc([N+](=O)[O-])cc2)C(=O)Nc2ccc(C(=O)c3ccccc3)cc2)CC1 [Compound 10] | 7 µM | 2.7 µM | 50.0% | 33.3% | 66.7 | 53.3 | 85 mg/kg | 6.8 min | 1.8 µM | 5 µM | Effect on experimental shock (Survival ratio (%) after 24 hours) (experimental shock): 79%; BUN (experimental DIC; Dose 10 μg/kg/min infusion): 32 ± 2 mg/dL; FDP (experimental DIC; Dose 10 μg/kg/min infusion): 16 to 128 µg/mL; Fbg (experimental DIC; Dose 10 μg/kg/min infusion): 109 ± 30 mg/dL; GOT (experimental DIC; Dose 10 μg/kg/min infusion): 302 ± 29 U/ml; Plat (experimental DIC; Dose 10 μg/kg/min infusion): 68 ± 8 x 10^4/μl; BUN (experimental DIC; Dose 100 μg/kg/min infusion): 30 ± 2 mg/dL; FDP (experimental DIC; Dose 100 μg/kg/min infusion): 16 to 128 µg/mL; Fbg (experimental DIC; Dose 100 μg/kg/min infusion): 128 ± 32 mg/dL; GOT (experimental DIC; Dose 100 μg/kg/min infusion): 258 ± 60 U/ml; Plat (experimental DIC; Dose 100 μg/kg/min infusion): 66 ± 10 x 10^4/μl; CPK (experimental DIC; Table 5-1, Dose 100 μg/kg/min infusion): 20 ± 5 U/1 |
